ChEMBL document CHEMBL3797052 (Eur J Med Chem, 2016)

Tested on: T47D
Test: Antiproliferative activity against human T47D cells assessed as growth inhibition after 48 hrs by sulforhodamine B assay
Format: functional
Conditions: not given

| SMILES | TGI |
| --- | --- |
| CNC(=O)c1cc(Oc2ccc3nc(NC(=O)Nc4cc(C(F)(F)F)cc(C(F)(F)F)c4)sc3c2)ccn1 | 2.3 µM |

Same assay, conditions: read-out: LC50 (the source's name)

| SMILES | CC50 |
| --- | --- |
| CNC(=O)c1cc(Oc2ccc3nc(NC(=O)Nc4cc(C(F)(F)F)cc(C(F)(F)F)c4)sc3c2)ccn1 | 8.47 µM |

Tested on: A549
Test: Antiproliferative activity against human A549/ATCC cells assessed as cell growth at 10^-8 M after 48 hrs by sulforhodamine B assay
Format: functional
Conditions: A549, 48 h, read-out: Activity

| SMILES | growth at 0.01 µM |
| --- | --- |
| CNC(=O)c1cc(Oc2ccc3nc(NC(=O)Nc4cc(C(F)(F)F)cc(C(F)(F)F)c4)sc3c2)ccn1 | 104% |

Tested on: not listed separately
Test: Antiproliferative activity against human HOP62 cells assessed as cell growth at 10^-6 M after 48 hrs by sulforhodamine B assay
Format: functional
Conditions: HOP-62, 48 h, read-out: Activity

| SMILES | growth at 1 µM |
| --- | --- |
| CNC(=O)c1cc(Oc2ccc3nc(NC(=O)Nc4cc(C(F)(F)F)cc(C(F)(F)F)c4)sc3c2)ccn1 | 58% |

Tested on: U-251
Test: Antiproliferative activity against human U251 cells assessed as cell growth at 10^-6 M after 48 hrs by sulforhodamine B assay
Format: functional
Conditions: U-251, 48 h, read-out: Activity

| SMILES | growth at 1 µM |
| --- | --- |
| CNC(=O)c1cc(Oc2ccc3nc(NC(=O)Nc4cc(C(F)(F)F)cc(C(F)(F)F)c4)sc3c2)ccn1 | 51% |

Tested on: not listed separately
Test: Antiproliferative activity against human LOXIMVI cells assessed as cell growth at 10^-6 M after 48 hrs by sulforhodamine B assay
Format: functional
Conditions: LOX IMVI, read-out: Activity

| SMILES | growth at 1 µM |
| --- | --- |
| CNC(=O)c1cc(Oc2ccc3nc(NC(=O)Nc4cc(C(F)(F)F)cc(C(F)(F)F)c4)sc3c2)ccn1 | 63% |

Tested on: A549
Test: Antiproliferative activity against human A549/ATCC cells assessed as cell growth at 10^-4 M after 48 hrs by sulforhodamine B assay
Format: functional
Conditions: A549, 48 h, read-out: Activity

| SMILES | growth at 100 µM |
| --- | --- |
| CNC(=O)c1cc(Oc2ccc3nc(NC(=O)Nc4cc(C(F)(F)F)cc(C(F)(F)F)c4)sc3c2)ccn1 | -97% |

Tested on: HT-29
Test: Antiproliferative activity against human HT-29 cells assessed as cell growth at 10^-4 M after 48 hrs by sulforhodamine B assay
Format: functional
Conditions: HT-29, 48 h, read-out: Activity

| SMILES | growth at 100 µM |
| --- | --- |
| CNC(=O)c1cc(Oc2ccc3nc(NC(=O)Nc4cc(C(F)(F)F)cc(C(F)(F)F)c4)sc3c2)ccn1 | -82% |

Tested on: SK-MEL-28
Test: Antiproliferative activity against human SK-MEL-28 cells assessed as cell growth at 10^-8 M after 48 hrs by sulforhodamine B assay
Format: functional
Conditions: SK-MEL-28, 48 h, read-out: Activity

| SMILES | growth at 0.01 µM |
| --- | --- |
| CNC(=O)c1cc(Oc2ccc3nc(NC(=O)Nc4cc(C(F)(F)F)cc(C(F)(F)F)c4)sc3c2)ccn1 | 93% |

Tested on: not listed separately
Test: Antiproliferative activity against human UACC257 cells assessed as cell growth at 10^-8 M after 48 hrs by sulforhodamine B assay
Format: functional
Conditions: UACC-257, 48 h, read-out: Activity

| SMILES | growth at 0.01 µM |
| --- | --- |
| CNC(=O)c1cc(Oc2ccc3nc(NC(=O)Nc4cc(C(F)(F)F)cc(C(F)(F)F)c4)sc3c2)ccn1 | 102% |

Tested on: not listed separately
Test: Antiproliferative activity against human OVCAR4 cells assessed as cell growth at 10^-8 M after 48 hrs by sulforhodamine B assay
Format: functional
Conditions: OVCAR-4, 48 h, read-out: Activity

| SMILES | growth at 0.01 µM |
| --- | --- |
| CNC(=O)c1cc(Oc2ccc3nc(NC(=O)Nc4cc(C(F)(F)F)cc(C(F)(F)F)c4)sc3c2)ccn1 | 88% |

Tested on: not listed separately
Test: Antiproliferative activity against human OVCAR8 cells assessed as cell growth at 10^-8 M after 48 hrs by sulforhodamine B assay
Format: functional
Conditions: OVCAR-8, 48 h, read-out: Activity

| SMILES | growth at 0.01 µM |
| --- | --- |
| CNC(=O)c1cc(Oc2ccc3nc(NC(=O)Nc4cc(C(F)(F)F)cc(C(F)(F)F)c4)sc3c2)ccn1 | 102% |

Tested on: not listed separately
Test: Antiproliferative activity against human NCI-ADR-RES cells assessed as cell growth at 10^-8 M after 48 hrs by sulforhodamine B assay
Format: functional
Conditions: read-out: Activity

| SMILES | growth at 0.01 µM |
| --- | --- |
| CNC(=O)c1cc(Oc2ccc3nc(NC(=O)Nc4cc(C(F)(F)F)cc(C(F)(F)F)c4)sc3c2)ccn1 | 101% |

Tested on: not listed separately
Test: Antiproliferative activity against human Caki1 cells assessed as cell growth at 10^-8 M after 48 hrs by sulforhodamine B assay
Format: functional
Conditions: CAKI-1, 48 h, read-out: Activity

| SMILES | growth at 0.01 µM |
| --- | --- |
| CNC(=O)c1cc(Oc2ccc3nc(NC(=O)Nc4cc(C(F)(F)F)cc(C(F)(F)F)c4)sc3c2)ccn1 | 91% |

Tested on: MDA-MB-435
Test: Antiproliferative activity against human MDA-MB-435 cells assessed as cell growth at 10^-6 M after 48 hrs by sulforhodamine B assay
Format: functional
Conditions: MDA-MB-435, 48 h, read-out: Activity

| SMILES | growth at 1 µM |
| --- | --- |
| CNC(=O)c1cc(Oc2ccc3nc(NC(=O)Nc4cc(C(F)(F)F)cc(C(F)(F)F)c4)sc3c2)ccn1 | 52% |

Tested on: not listed separately
Test: Antiproliferative activity against human UACC257 cells assessed as cell growth at 10^-6 M after 48 hrs by sulforhodamine B assay
Format: functional
Conditions: UACC-257, 48 h, read-out: Activity

| SMILES | growth at 1 µM |
| --- | --- |
| CNC(=O)c1cc(Oc2ccc3nc(NC(=O)Nc4cc(C(F)(F)F)cc(C(F)(F)F)c4)sc3c2)ccn1 | 59% |

Tested on: not listed separately
Test: Antiproliferative activity against human DU145 cells assessed as cell growth at 10^-6 M after 48 hrs by sulforhodamine B assay
Format: functional
Conditions: DU-145, 48 h, read-out: Activity

| SMILES | growth at 1 µM |
| --- | --- |
| CNC(=O)c1cc(Oc2ccc3nc(NC(=O)Nc4cc(C(F)(F)F)cc(C(F)(F)F)c4)sc3c2)ccn1 | 63% |

Tested on: M14
Test: Antiproliferative activity against human M14 cells assessed as cell growth at 10^-4 M after 48 hrs by sulforhodamine B assay
Format: functional
Conditions: M14, 48 h, read-out: Activity

| SMILES | growth at 100 µM |
| --- | --- |
| CNC(=O)c1cc(Oc2ccc3nc(NC(=O)Nc4cc(C(F)(F)F)cc(C(F)(F)F)c4)sc3c2)ccn1 | -73% |

Tested on: SK-MEL-2
Test: Antiproliferative activity against human SK-MEL-2 cells assessed as cell growth at 10^-4 M after 48 hrs by sulforhodamine B assay
Format: functional
Conditions: SK-MEL-2, 48 h, read-out: Activity

| SMILES | growth at 100 µM |
| --- | --- |
| CNC(=O)c1cc(Oc2ccc3nc(NC(=O)Nc4cc(C(F)(F)F)cc(C(F)(F)F)c4)sc3c2)ccn1 | -75% |

Tested on: not listed separately
Test: Antiproliferative activity against human SKOV3 cells assessed as cell growth at 10^-4 M after 48 hrs by sulforhodamine B assay
Format: functional
Conditions: SK-OV-3, 48 h, read-out: Activity

| SMILES | growth at 100 µM |
| --- | --- |
| CNC(=O)c1cc(Oc2ccc3nc(NC(=O)Nc4cc(C(F)(F)F)cc(C(F)(F)F)c4)sc3c2)ccn1 | -84% |

Tested on: not listed separately
Test: Antiproliferative activity against human Caki1 cells assessed as cell growth at 10^-4 M after 48 hrs by sulforhodamine B assay
Format: functional
Conditions: CAKI-1, 48 h, read-out: Activity

| SMILES | growth at 100 µM |
| --- | --- |
| CNC(=O)c1cc(Oc2ccc3nc(NC(=O)Nc4cc(C(F)(F)F)cc(C(F)(F)F)c4)sc3c2)ccn1 | -83% |

Tested on: not listed separately
Test: Antiproliferative activity against human RXF393 cells assessed as cell growth at 10^-4 M after 48 hrs by sulforhodamine B assay
Format: functional
Conditions: RXF 393, 48 h, read-out: Activity

| SMILES | growth at 100 µM |
| --- | --- |
| CNC(=O)c1cc(Oc2ccc3nc(NC(=O)Nc4cc(C(F)(F)F)cc(C(F)(F)F)c4)sc3c2)ccn1 | -70% |

Tested on: not listed separately
Test: Antiproliferative activity against human UO31 cells assessed as cell growth at 10^-4 M after 48 hrs by sulforhodamine B assay
Format: functional
Conditions: UO-31, 48 h, read-out: Activity

| SMILES | growth at 100 µM |
| --- | --- |
| CNC(=O)c1cc(Oc2ccc3nc(NC(=O)Nc4cc(C(F)(F)F)cc(C(F)(F)F)c4)sc3c2)ccn1 | -79% |

Tested on: not listed separately
Test: Antiproliferative activity against human DU145 cells assessed as cell growth at 10^-4 M after 48 hrs by sulforhodamine B assay
Format: functional
Conditions: DU-145, 48 h, read-out: Activity

| SMILES | growth at 100 µM |
| --- | --- |
| CNC(=O)c1cc(Oc2ccc3nc(NC(=O)Nc4cc(C(F)(F)F)cc(C(F)(F)F)c4)sc3c2)ccn1 | -89% |
